Test [1] has as its target T1, K. pneumoniae LpxH (KpLpxH) (Klebsiella pneumoniae subsp. pneumoniae (strain ATCC 700721 / MGH 78578), UniProt A6T5R0). The test can be described thus: LpxE-coupled malachite green LpxH activity assay (KpLpxH inhibition). It counts as biochemical. To be noted: for remaining activity at 0.1 µM / inhibition at 0.1 µM: 0.1 μM inhibitor; for remaining activity at 0.1 µM: normalized against KpLpxH activity in 10% DMSO, read-out: Percentage Activity of KpLpxH (vi/v0); for inhibition at 0.1 µM: read-out: Percentage Inhibition of KpLpxH; for IC50: Table 5, read-out: IC50: Average. The protocol: Evaluation of LpxH inhibition by analogs: After completing the synthesis of sulfonyl piperazine compounds with various forms of linkers, the KpLpxH inhibition was biochemically characterized by these analogs at 0.1 μM using the nonradioactive, colorimetric malachite green assay that we had previously reported. […] Such an enhanced potency requires the presence of the hydroxamate group, as its substitution with a carboxylate group in compound 7 reduced the compound activity (vi/v0=30±6%).
The LpxE-coupled LpxH activity assay was conducted as described previously using the GB1-K. pneumoniae LpxH-His10 fusion protein. Briefly, two reaction mixtures were prepared. Mixture 1 contains 20 mM Tris-HCl (pH 8.0), 0.5 mg/mL BSA, 0.02% Triton X-100, 1 mM MnCl2, 1 mM DTT, 10% DMSO, and 200 µM substrate (UDP-DAGn), and mixture 2 is comprised of the same buffer, but instead of substrate, contains both LpxH (20 ng/ml) and 2× inhibitor. These mixtures were then pre-incubated at 37° C. for 10 min. To initiate the reaction, an equal volume of the LpxH mixture (mixture 2) was added to the substrate mixture (mixture 1) at 37° C. The final reaction solution contains 100 μM substrate, 10 ng/ml enzyme, and 1× inhibitor. At the desired reaction time points, an aliquot of 20 μL reaction mixture was removed and added to a well in 96-well half-area plate containing 5 mM EDTA (final concentration) to quench the LpxH reaction. Purified Aquifex aeolicus LpxE was then added to a final concentration of 5 μg/mL. The plate was incubated at 37° C. for 30 min followed by addition of formic acid to a final concentration of 3.75 M to quench the LpxE reaction. The malachite green reagent (Sigma Aldrich, catalog MAK307) was diluted 5-fold into the solutions, and the plate was incubated for 30 min at room temperature before the absorbance at 620 nm was measured. All measurements were done in triplicates, and standard error (S.E.) was calculated.

In test [2] the test system is K. pneumoniae (ATCC 10031). The test can be described thus: MIC assay (broth microdilution), K. pneumoniae. It counts as cell-based. To be noted: Klebsiella pneumoniae, ATCC10031. On the procedure:
(§1) The MIC assay protocol was adapted from the broth microdilution methods described by the National Committee for Clinical Laboratory Standards using 96-well plates as described previously. In brief, overnight bacterial cultures were diluted to an OD600 of 0.006 in cation-adjusted Mueller-Hinton medium containing 7% DMSO and incubated at 37° C. for 22 h in the presence of varying concentrations of inhibitors. Following overnight incubation, each well is treated with 10 μL of 3-(4,5-dimethylthiazol-2-yl)-2,5-diphenyltetrazolium bromide (MTT, 5 mg/mL) for 3 h. Finally, the culture is solubilized by addition of 2-propanol, and the results are read by taking the difference of the UV reading at both 570 and 690 nm. MIC values were reported as the lowest compound concentration that inhibited bacterial growth. The baseline for inhibited cell growth was determined to be <4× the average control reading due to the baseline optical density of the initial starting bacterial culture.

For another test, the system named is WT K. pneumoniae. To be noted: cited from earlier work.
In test [3] the test system is E. coli strains with a compromised outer membrane (yhjD*ΔkdtA) or with an efflux pump deletion (ΔtolC). To be noted: cited from earlier work.
Test [4] addresses T1, K. pneumoniae LpxH (KpLpxH). To be noted: previously reported value for 2; read-out: KI of KpLpxH inhibition (reported value); cited from earlier work.
A further test deals with E. coli W3110. The test can be described thus: MIC assay (broth microdilution), E. coli. It counts as cell-based. To be noted: Escherichia coli, Table 4. On the procedure:
as §1

[5] abbreviates: K. pneumoniae (ATCC 10031), in vitro, read-out: MIC.
[6] abbreviates: Table 4, read-out: MIC - K. pneumoniae (ATCC 10031).

Converted amounts (≈) assume the structure as drawn. Where two headings read alike, the source gives them in different places.

`CC(=O)N1CCc2cc(S(=O)(=O)N3CCN(c4cccc(C(F)(F)F)c4)CC3)ccc21` [AZ1, reference compound]: the remaining activity at 0.1 µM in test [1] stood at 78%. Moreover, the inhibition at 0.1 µM in test [1] is 22%. Further, the MIC in test [2] (setting [5]) and in test [2] (setting [6]) was more than 64 µg/mL each time. The antibiotic activity result (in the test on WT K. pneumoniae; in test [3]) was “weak antibiotic activity” in each case.

For `CC(=O)N1CCc2cc(S(=O)(=O)N3CCN(c4cc(Cl)cc(C(F)(F)F)c4)CC3)ccc21` [JH-LPH-33], in test [1], the remaining activity at 0.1 µM was found to be 21%, the inhibition at 0.1 µM is 79% and the IC50 stood at 104 nM. For the same compound, the MIC in test [2] (setting [5]) was 0.83 µg/mL (≈ 1.7 µM). Further, in test [2] (setting [6]), the minimum inhibitory concentration (MIC) was 0.83 µg/mL (≈ 1.7 µM). For the same compound, in test [4], the Ki was 10 nM.

`O=C(CCCCCCC(=O)Nc1ccc(S(=O)(=O)N2CCN(c3cc(Cl)cc(C(F)(F)F)c3)CC2)cc1)NO` [JH-LPH-65]: the IC50 in test [1] was 13 nM. Moreover, the MIC in test [2] (setting [6]) turned out to be 12 µg/mL (≈ 20.3 µM).

Regarding `O=C(CN1CCOCC1)Nc1ccc(S(=O)(=O)N2CCN(c3cc(Cl)cc(C(F)(F)F)c3)CC2)cc1` [JH-LPH-69], the IC50 in test [1] was 79 nM. Besides, the MIC in test [2] (setting [6]) was 4 µg/mL (≈ 7.31 µM).

As to `O=C(CN1CCOCC1)N1CCc2cc(S(=O)(=O)N3CCN(c4cc(Cl)cc(C(F)(F)F)c4)CC3)ccc21` [JH-LPH-70], the IC50 in test [1] amounted to 62 nM. Moreover, in test [2] (setting [6]), the MIC amounted to 10.7 µg/mL (≈ 18.6 µM).

For `NC(=O)N1CCc2cc(S(=O)(=O)N3CCN(c4cc(Cl)cc(C(F)(F)F)c4)CC3)ccc21` [JH-LPH-73], the concentration for half-maximal inhibition (IC50) in test [1] worked out at 37 nM. Also, the MIC in test [2] (setting [6]) was found to be 0.67 µg/mL (≈ 1.37 µM).

Turning to `NC(=O)N1CCc2cc(S(=O)(=O)N3CCN(c4cc(C(F)(F)F)ccn4)CC3)ccc21` [JH-LPH-91], in test [1], the IC50 was found to be 105 nM. For the same compound, the minimum inhibitory concentration (MIC) in test [2] (setting [6]) turned out to be 0.125 µg/mL (≈ 0.274 µM).

With `CC(=O)N1CCc2cc(S(=O)(=O)N3CCN(c4cc(C(F)(F)F)cc(Cl)n4)CC3)ccc21` [JH-LPH-92], the half-maximal inhibitory concentration (IC50) in test [1] stood at 5 nM. Also, the MIC in test [2] (setting [6]) was found to be 0.063 µg/mL (≈ 0.129 µM).

For `CC(=O)N1CCc2cc(S(=O)(=O)N3CCN(c4nccc(C(F)(F)F)n4)CC3)ccc21` [JH-LPH-93], in test [1], the IC50 amounted to 32 nM. In test [2] (setting [6]), the minimal inhibitory concentration (MIC) came out at 1.33 µg/mL (≈ 2.92 µM).

For the compound `O=C(CCCCNC(=O)N1CCc2cc(S(=O)(=O)N3CCN(c4cc(C(F)(F)F)cc(Cl)n4)CC3)ccc21)NO` [JH-LPH-96], in test [1], the IC50 is 2 nM. Further, the MIC in test [2] (setting [6]) came out at 0.83 µg/mL (≈ 1.37 µM).

On to `O=C(CCCCCNC(=O)Nc1ccc(S(=O)(=O)N2CCN(c3cc(C(F)(F)F)cc(Cl)n3)CC2)cc1)NO` [JH-LPH-104], for which the IC50 in test [1] came out at 0.23 nM. In addition, the MIC in test [2] (setting [6]) is 1 µg/mL (≈ 1.69 µM); with E. coli W3110, 16 µg/mL (≈ 27 µM).

As to `CN(c1ccccc1C(=O)Nc1ccc(S(=O)(=O)N2CCN(c3cc(Cl)cc(Cl)c3)CC2)cc1)S(C)(=O)=O` [JH-LPH-105], the figures for the MIC (in test [2] (setting [6]); against E. coli W3110) were 0.3 µg/mL (≈ 0.502 µM) and 2 µg/mL (≈ 3.35 µM), respectively.

With `CN(c1ccccc1C(=O)N1CCc2cc(S(=O)(=O)N3CCN(c4cc(C(F)(F)F)cc(Cl)n4)CC3)ccc21)S(C)(=O)=O` [JH-LPH-106], the MIC in the test on E. coli W3110 is 1.7 µg/mL (≈ 2.58 µM).

As for `CN(c1ccccc1C(=O)Nc1ccc(S(=O)(=O)N2CCN(c3cc(C(F)(F)F)cc(Cl)n3)CC2)cc1)S(C)(=O)=O` [JH-LPH-107], the MIC in test [2] (setting [6]) was found to be 0.04 µg/mL (≈ 0.0633 µM); in the test with E. coli W3110 it was 1 µg/mL (≈ 1.58 µM).

Values taken from patent US20240279174A1, “ANTIBIOTICS COMPRISING LPXH-TARGETING COMPOUNDS AND METHODS OF MAKING AND USING THE SAME” (Duke University, priority 2019, published 2024).
